Data taken from patent US20260070906A1, “IMIDAZO[4,5-C]PYRIDINE COMPOUNDS FOR THE TREATMENT OF CANCER” (Hoffmann-La Roche Inc., priority 2023, published 2026).
pEC50: −log10 of the molar value.

Tests used:
[1] = molecular target: T1, human TLR7 (Homo sapiens, UniProt Q9NYK1); assay: HEK293-Blue-hTLR7 cells assay (NF-κB SEAP reporter); assay type: cell-based; settings: 20 hrs incubation, agonism
T1 construct: host or cells: HEK293-Blue-hTLR7 (HEK293)
T1 sequence (Q9NYK1 27-1049): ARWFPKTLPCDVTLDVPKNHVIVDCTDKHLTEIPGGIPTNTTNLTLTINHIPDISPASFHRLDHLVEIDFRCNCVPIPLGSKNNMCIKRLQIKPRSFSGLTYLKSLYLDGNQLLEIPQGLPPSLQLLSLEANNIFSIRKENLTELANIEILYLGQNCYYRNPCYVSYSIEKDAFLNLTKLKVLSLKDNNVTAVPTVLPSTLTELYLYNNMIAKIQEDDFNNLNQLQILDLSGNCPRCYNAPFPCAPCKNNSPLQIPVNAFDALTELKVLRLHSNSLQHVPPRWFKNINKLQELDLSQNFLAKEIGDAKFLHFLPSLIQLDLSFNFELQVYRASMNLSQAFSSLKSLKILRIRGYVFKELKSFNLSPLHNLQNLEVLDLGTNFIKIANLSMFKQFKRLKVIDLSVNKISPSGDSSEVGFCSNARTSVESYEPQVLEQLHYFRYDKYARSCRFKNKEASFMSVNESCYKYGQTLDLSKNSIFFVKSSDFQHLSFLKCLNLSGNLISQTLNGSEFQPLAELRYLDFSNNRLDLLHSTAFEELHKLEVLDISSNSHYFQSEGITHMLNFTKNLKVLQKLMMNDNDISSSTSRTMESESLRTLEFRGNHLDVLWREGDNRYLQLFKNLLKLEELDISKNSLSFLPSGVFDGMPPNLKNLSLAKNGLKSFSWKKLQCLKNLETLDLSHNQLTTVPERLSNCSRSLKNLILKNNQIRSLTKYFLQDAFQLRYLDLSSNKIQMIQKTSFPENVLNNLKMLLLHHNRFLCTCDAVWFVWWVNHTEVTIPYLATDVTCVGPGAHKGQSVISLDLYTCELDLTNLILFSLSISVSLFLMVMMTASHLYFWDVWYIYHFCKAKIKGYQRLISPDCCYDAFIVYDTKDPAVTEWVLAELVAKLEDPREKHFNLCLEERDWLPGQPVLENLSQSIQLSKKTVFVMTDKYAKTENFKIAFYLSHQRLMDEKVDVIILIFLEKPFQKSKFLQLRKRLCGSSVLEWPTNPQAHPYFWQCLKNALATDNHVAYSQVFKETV
Source text: A stable HEK293-Blue-hTLR7 cell line was purchased from InvivoGen (Cat. #: hkb-htlr7, San Diego, California, USA). These cells were designed for studying the stimulation of human TLR7 by monitoring the activation of NF-κB. A SEAP (secreted embryonic alkaline phosphatase) reporter gene was placed under the control of the IFN-β minimal promoter fused to five NF-κB and AP-1-binding sites. The SEAP was induced by activating NF-κB and AP-1 via stimulating HEK-Blue hTLR7 cells with TLR7 ligands. Therefore the reporter expression was regulated by the NF-κB promoter upon stimulation of human TLR7 for 20 hrs. The cell culture supernatant SEAP reporter activity was determined using QUANTI-Blue™ kit (Cat. #: rep-qbl, Invivogen, San Diego, Ca, USA) at a wavelength of 650 nm, a detection medium that turns purple or blue in the presence of alkaline phosphatase.
HEK293-Blue-hTLR7 cells were incubated at a density of 250,000˜450,000 cells/mL in a volume of 180 μL in a 96-well plate in Dulbecco's Modified Eagle's medium (DMEM) containing 4.5 g/L glucose, 100 U/mL penicillin, 100 μg/mL streptomycin, 100 μg/mL Normocin, 1% (V/V) GlutaMAX™, 10% (V/V) heat-inactivated fetal bovine serum for 24 hrs. Then the HEK293-Blue-hTLR-7 cells were incubated with addition of 20 μL test compound in a serial dilution in the presence of final DMSO at 1% and perform incubation under 37° C. in a CO2 incubator for 20 hrs. Then 20 μL of the supernatant from each well was incubated with 180 μL Quanti-blue substrate solution at 37° C. for 1 hours and the absorbance was read at 620-655 nm using a spectrophotometer. The signalling pathway that TLR7 activation leads to downstream NF-κB activation has been widely accepted, and therefore similar reporter assay was also widely used for evaluating TLR7 agonist (Tsuneyasu Kaisho and Takashi Tanaka, Trends in Immunology, Volume 29, Issue 7, July 2008, […]; Hiroaki Hemmi et al, Nature Immunology 3, 196-200 (2002)).

[2] = molecular target: T2, human TLR8 (Homo sapiens, UniProt Q9NR97); assay: HEK293-Blue-hTLR8 cells assay (NF-κB SEAP reporter); assay type: cell-based; settings: 20 hours incubation, agonism
T2 construct: host or cells: HEK293-Blue-hTLR8 (HEK293)
T2 sequence (Q9NR97 27-1041): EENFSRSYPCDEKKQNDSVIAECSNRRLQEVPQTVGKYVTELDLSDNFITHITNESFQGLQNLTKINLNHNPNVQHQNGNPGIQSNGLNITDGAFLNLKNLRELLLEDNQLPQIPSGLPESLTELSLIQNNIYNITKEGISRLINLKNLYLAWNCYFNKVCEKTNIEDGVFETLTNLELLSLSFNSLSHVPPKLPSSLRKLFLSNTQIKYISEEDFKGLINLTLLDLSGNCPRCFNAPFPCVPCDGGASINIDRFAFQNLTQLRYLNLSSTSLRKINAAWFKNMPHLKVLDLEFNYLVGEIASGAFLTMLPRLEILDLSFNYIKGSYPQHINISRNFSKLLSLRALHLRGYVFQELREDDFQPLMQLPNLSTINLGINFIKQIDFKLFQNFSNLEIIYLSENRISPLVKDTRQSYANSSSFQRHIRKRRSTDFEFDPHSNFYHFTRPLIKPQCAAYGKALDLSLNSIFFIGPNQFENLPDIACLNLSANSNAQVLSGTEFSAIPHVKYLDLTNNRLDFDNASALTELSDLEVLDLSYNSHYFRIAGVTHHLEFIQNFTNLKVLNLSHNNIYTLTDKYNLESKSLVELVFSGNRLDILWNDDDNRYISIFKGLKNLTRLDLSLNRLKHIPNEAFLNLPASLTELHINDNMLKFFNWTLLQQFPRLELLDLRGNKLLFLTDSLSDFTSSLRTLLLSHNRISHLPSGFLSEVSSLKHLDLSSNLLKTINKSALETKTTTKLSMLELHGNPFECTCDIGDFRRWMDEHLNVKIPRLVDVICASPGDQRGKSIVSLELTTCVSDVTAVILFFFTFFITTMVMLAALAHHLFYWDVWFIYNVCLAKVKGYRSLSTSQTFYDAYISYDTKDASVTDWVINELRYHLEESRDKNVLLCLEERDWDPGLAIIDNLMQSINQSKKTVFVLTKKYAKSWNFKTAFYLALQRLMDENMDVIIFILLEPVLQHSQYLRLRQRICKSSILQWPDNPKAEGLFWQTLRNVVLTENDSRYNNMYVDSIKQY
Source text: A stable HEK293-Blue-hTLR8 cell line was purchased from InvivoGen (Cat. #: hkb-htlr8, San Diego, California, USA). These cells were designed for studying the stimulation of human TLR8 by monitoring the activation of NF-κB. A SEAP (secreted embryonic alkaline phosphatase) reporter gene was placed under the control of the IFN-β minimal promoter fused to five NF-κB and AP-1-binding sites. The SEAP was induced by activating NF-κB and AP-1 via stimulating HEK-Blue hTLR8 cells with TLR8 ligands. Therefore the reporter expression was regulated by the NF-κB promoter upon stimulation of human TLR8. The cell culture supernatant SEAP reporter activity was determined using QUANTI-Blue™ kit (Cat. #: rep-qbl, Invivogen, San Diego, Ca, USA) at a wavelength of 650 nm, a detection medium that turns purple to blue in the presence of alkaline phosphatase.
HEK293-Blue-hTLR8 cells were incubated at a density of 250,000-450,000 cells/mL in a volume of 180 μL in a 96-well plate in Dulbecco's Modified Eagle's medium (DMEM) containing 4.5 g/L glucose, 100 U/mL penicillin, 100 μg/mL streptomycin, 100 μg/mL Normocin, 1% (V/V) GlutaMAX™, 10% (v/v) heat-inactivated fetal bovine serum for 24 hours. Then the HEK293-Blue-hTLR8 cells were incubated with addition of 20 μL test compound in a serial dilution in the presence of final DMSO at 1% and perform incubation under 37° C. in a CO2 incubator for 20 hours. Then 20 μL of the supernatant from each well was incubated with 180 μL Quanti-blue substrate solution at 37° C. for 1 hours and the absorbance was read at 620-655 nm using a spectrophotometer. The signalling pathway that TLR8 activation leads to downstream NF-κB activation has been widely accepted, and therefore similar reporter assay was also widely used for evaluating TLR8 agonist.

Structure (SMILES)	pEC50 [1]	pEC50 [2]	HEK293-hTLR7 EC50 [1]	HEK293-hTLR8 EC50 [2]
CCOCc1nc2c(N)nc(C)c(Sc3ccc(CN(C)C)cc3O)c2[nH]1 [Example 8, 2-[[4-amino-2-(ethoxymethyl)-6-methyl-1H-imidazo[4,5-c]pyridin-7-yl]sulfanyl]-5-[(dimethylamino)methyl]phenol]	7.57	7.59		
CCOCc1nc2c(N)nc(C)c(Sc3cc(C)c(CN(C)C)cc3O)c2[nH]1 [Example 23, 2-[[4-amino-2-(ethoxymethyl)-6-methyl-1H-imidazo[4,5-c]pyridin-7-yl]sulfanyl]-5-[(dimethylamino)methyl]-4-methyl-phenol]	7.60	7.09		
CCCN(CC)Cc1ccc(Sc2c(C)nc(N)c3nc(COCC)[nH]c23)cc1 [Example 5, 2-(ethoxymethyl)-7-[4-[[ethyl(propyl)amino]methyl]phenyl]sulfanyl-6-methyl-1H-imidazo[4,5-c]pyridin-4-amine]	7.74	7.52		
CCOCc1nc2c(N)nc(C)c(Sc3ccc(C(C)N(C)C)cc3O)c2[nH]1 (stereo not drawn) [Example 24, 2-[[4-amino-2-(ethoxymethyl)-6-methyl-1H-imidazo[4,5-c]pyridin-7-yl]sulfanyl]-5-[1-(dimethylamino)ethyl]phenol]	7.66	7.25		
CCCCc1nc2c(N)nnc(N(C)Cc3ccc(CN(C)C)cc3)c2n1C [SAN-43, reference compound]	6.51	7.43	did not show comparable TLR7 and TLR8 activities	did not show comparable TLR7 and TLR8 activities
CCOCc1nc2c(N)nc(C)c(Sc3cc4c(cc3O)CN(C)CC4)c2[nH]1 [Example 32, 6-[[4-amino-2-(ethoxymethyl)-6-methyl-1H-imidazo[4,5-c]pyridin-7-yl]sulfanyl]-2-methyl-3,4-dihydro-1H-isoquinolin-7-ol]	7.68	7.27		

The next lines start with results.

pEC50 [1]	pEC50 [2]	Structure (SMILES)	HEK293-hTLR7 EC50 [1]	HEK293-hTLR8 EC50 [2]
8.05	7.72	CCOCc1nc2c(N)nc(C)c(Sc3ccc(CN(C)C)c4cc[nH]c34)c2[nH]1 [Example 18, 7-[[4-[(dimethylamino)methyl]-1H-indol-7-yl]sulfanyl]-2-(ethoxymethyl)-6-methyl-1H-imidazo[4,5-c]pyridin-4-amine]		
7.74	8.30	CCOCc1nc2c(N)nc(C)c(Sc3ccc(CCN(C)C)cc3)c2[nH]1 [Example 31, 7-[4-[2-(dimethylamino)ethyl]phenyl]sulfanyl-2-(ethoxymethyl)-6-methyl-1H-imidazo[4,5-c]pyridin-4-amine]		
7.89	7.96	CCOCc1nc2c(N)nc(C)c(Sc3ccc(NCCN(C)C)nc3)c2[nH]1 [Example 30, N-[5-[[4-amino-2-(ethoxymethyl)-6-methyl-1H-imidazo[4,5-c]pyridin-7-yl]sulfanyl]-2-pyridyl]-N′,N′-dimethyl-ethane-1,2-diamine]		
8.22	7.66	CCCCc1nc2c(N)nc(C)c(SCCc3ccc(CN(C)C)cc3)c2[nH]1 [Example 15, 2-butyl-7-[2-[4-[(dimethylamino)methyl]phenyl]ethylsulfanyl]-6-methyl-1H-imidazo[4,5-c]pyridin-4-amine]		
8.22	7.36	CCOCc1nc2c(N)nc(C)c(Sc3c(N)cc(CN4CCN(C)CC4)cc3OC)c2[nH]1 [Example 29, 7-[2-amino-6-methoxy-4-[(4-methylpiperazin-1-yl)methyl]phenyl]sulfanyl-2-(ethoxymethyl)-6-methyl-1H-imidazo[4,5-c]pyridin-4-amine]		
7.82	8.00	CCOCc1nc2c(N)nc(C)c(Sc3ccc(CN(C)CC)cc3)c2[nH]1 [Example 6, 2-(ethoxymethyl)-7-[4-[[ethyl(methyl)amino]methyl]phenyl]sulfanyl-6-methyl-1H-imidazo[4,5-c]pyridin-4-amine]		
7.82	7.85	CCCCc1nc2c(N)nc(C)c(Sc3ccc(CN(C)C)cc3)c2[nH]1 [Example 14, 2-butyl-7-[4-[(dimethylamino)methyl]phenyl]sulfanyl-6-methyl-1H-imidazo[4,5-c]pyridin-4-amine]		
7.85	7.37	CCCCc1nc2c(N)nc(C)c(Sc3ccc(CN(C)C)cc3O)c2[nH]1 [Example 21, 2-[(4-amino-2-butyl-6-methyl-1H-imidazo[4,5-c]pyridin-7-yl)sulfanyl]-5-[(dimethylamino)methyl]phenol]		
